# Source: patent publication US20140005163A1 (NOVARTIS AG, priority 2010, published 2014)
# Legend:
# PI3K alpha = biological target: T1, PI3K alpha (Homo sapiens, UniProt P42336); assay: PI3K alpha kinase assay (Kinase-Glo luminescence); format: biochemical
# T1 construct: p85(iSH2) fusion partner (see partner chain) (N); His tag (C); made in house; host or cells: baculovirus; Tn5 (Trichoplusia ni) or TiniPro insect cells
# Summary of the method: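 Luminescent ATP-depletion assay (Kinase-Glo) with 10 nM PI3Kα and 10 μg/mL phosphatidylinositol as lipid substrate at 1 μM ATP. Incubation lasts 60 min at room temperature.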
# PI3K beta = biological target: T2, PI3K beta (Homo sapiens, UniProt P42338); assay: PI3K beta kinase assay (Kinase-Glo luminescence); format: biochemical
# T2 construct: for the full-length p110-b subunit are generated and fused by overlapping PCR; p85(iSH2) fusion partner (see partner chain) (N); His tag (C); made in house; host or cells: baculovirus; Tn5 (Trichoplusia ni) or TiniPro insect cells
# T2 sequence (P42338 with tags, fused parts or gaps limits assumed): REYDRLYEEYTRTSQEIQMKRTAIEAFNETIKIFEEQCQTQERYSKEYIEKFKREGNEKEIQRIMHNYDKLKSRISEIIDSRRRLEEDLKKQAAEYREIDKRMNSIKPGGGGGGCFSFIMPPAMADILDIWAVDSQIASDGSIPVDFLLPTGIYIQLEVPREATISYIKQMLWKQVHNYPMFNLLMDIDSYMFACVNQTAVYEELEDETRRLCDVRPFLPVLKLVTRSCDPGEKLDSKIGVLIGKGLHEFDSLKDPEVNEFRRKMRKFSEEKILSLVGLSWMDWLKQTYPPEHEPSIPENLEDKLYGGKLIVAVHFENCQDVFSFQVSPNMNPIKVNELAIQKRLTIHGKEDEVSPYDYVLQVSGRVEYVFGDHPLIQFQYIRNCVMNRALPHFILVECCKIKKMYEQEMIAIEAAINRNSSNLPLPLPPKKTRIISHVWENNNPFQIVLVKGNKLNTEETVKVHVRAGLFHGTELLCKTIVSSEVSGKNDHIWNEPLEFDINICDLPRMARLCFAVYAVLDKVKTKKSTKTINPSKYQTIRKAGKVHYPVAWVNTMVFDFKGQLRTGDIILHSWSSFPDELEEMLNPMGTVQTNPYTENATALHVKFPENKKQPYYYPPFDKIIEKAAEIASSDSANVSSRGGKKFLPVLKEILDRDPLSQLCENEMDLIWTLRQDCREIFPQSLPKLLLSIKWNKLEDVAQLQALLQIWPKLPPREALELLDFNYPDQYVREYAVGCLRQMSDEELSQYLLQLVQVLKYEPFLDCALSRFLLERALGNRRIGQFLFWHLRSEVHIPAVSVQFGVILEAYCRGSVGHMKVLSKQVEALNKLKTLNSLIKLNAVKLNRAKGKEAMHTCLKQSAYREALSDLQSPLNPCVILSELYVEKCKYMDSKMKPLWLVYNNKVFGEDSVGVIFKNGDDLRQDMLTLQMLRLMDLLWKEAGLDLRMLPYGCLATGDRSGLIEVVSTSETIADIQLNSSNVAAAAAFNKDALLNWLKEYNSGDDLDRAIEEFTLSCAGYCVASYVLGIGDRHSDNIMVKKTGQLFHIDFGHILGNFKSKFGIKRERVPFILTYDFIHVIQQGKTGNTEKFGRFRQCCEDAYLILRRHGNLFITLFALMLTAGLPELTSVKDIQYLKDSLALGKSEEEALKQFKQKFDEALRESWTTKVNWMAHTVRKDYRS
# Summary of the method: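 Enzyme: BV949 p85(iSH2)-Gly linker-p110β FL-His, 25 nM. Substrate: PI 10 μg/mL. ATP: 1 μM, added to start. Buffer: Tris pH 7.5 10 mM, MgCl2 3 mM, NaCl 50 mM, CHAPS 0.05%, DTT 1 mM. RT, 60 min. Readout: Kinase-Glo. IC50 by 4-parameter fit.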
# mTOR = biological target: T3, mTOR (Homo sapiens, UniProt P42345); assay: Biochemical assay for m-TOR by TR-FRET; settings: 8 μM ATP, 400 nM GFP-4EBP1, 0.5 nM mTOR
# T3 construct: purchased Invitrogen Corporation (Carlsbad/CA, USA) PV4753
# T3 sequence (P42345 1360-2549 limits assumed): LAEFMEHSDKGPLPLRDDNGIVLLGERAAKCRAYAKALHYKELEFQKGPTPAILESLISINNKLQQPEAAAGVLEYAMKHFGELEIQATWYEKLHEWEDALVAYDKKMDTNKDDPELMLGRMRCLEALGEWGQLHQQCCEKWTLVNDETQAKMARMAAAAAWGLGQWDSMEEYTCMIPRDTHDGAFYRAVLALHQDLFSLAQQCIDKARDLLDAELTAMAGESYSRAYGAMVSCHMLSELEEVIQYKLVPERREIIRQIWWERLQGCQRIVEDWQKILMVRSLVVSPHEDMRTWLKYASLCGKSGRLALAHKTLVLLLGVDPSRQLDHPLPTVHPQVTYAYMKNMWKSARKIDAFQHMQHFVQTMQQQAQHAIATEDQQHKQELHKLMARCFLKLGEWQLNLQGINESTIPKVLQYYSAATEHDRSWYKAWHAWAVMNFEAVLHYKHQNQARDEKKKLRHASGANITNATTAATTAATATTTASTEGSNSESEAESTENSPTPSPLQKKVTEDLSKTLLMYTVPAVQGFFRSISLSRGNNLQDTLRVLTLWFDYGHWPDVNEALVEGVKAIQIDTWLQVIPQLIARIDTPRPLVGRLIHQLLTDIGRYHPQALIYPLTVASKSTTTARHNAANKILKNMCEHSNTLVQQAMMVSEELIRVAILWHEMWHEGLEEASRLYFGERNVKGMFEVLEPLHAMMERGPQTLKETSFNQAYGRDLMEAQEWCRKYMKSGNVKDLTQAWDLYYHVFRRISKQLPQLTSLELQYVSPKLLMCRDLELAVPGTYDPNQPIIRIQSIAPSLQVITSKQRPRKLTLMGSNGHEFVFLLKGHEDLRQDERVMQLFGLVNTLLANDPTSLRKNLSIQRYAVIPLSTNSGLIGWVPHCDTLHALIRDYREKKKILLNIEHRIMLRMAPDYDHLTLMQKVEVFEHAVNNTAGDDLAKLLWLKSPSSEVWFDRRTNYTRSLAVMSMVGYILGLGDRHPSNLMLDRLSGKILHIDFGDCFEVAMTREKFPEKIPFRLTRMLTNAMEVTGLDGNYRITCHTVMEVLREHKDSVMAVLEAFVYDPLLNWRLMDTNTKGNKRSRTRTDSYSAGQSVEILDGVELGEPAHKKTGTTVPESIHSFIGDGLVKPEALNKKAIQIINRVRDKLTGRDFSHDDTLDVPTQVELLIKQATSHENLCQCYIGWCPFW
# Summary of the method: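 Steps: ATP (8 μM final) plus GFP-4EBP1 (400 nM final) combined with mTOR (0.5 nM final), incubated at rt; buffer HEPES pH 7.5 with 10 mM MnCl2, NaCl, EGTA, DTT. Then stopped with EDTA/Tb3+-anti-p4EBP1 pT46 Ab (0.5 nM). Plates read after 15 min.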
# T1 sequence (P42336 with tags, fused parts or gaps limits assumed): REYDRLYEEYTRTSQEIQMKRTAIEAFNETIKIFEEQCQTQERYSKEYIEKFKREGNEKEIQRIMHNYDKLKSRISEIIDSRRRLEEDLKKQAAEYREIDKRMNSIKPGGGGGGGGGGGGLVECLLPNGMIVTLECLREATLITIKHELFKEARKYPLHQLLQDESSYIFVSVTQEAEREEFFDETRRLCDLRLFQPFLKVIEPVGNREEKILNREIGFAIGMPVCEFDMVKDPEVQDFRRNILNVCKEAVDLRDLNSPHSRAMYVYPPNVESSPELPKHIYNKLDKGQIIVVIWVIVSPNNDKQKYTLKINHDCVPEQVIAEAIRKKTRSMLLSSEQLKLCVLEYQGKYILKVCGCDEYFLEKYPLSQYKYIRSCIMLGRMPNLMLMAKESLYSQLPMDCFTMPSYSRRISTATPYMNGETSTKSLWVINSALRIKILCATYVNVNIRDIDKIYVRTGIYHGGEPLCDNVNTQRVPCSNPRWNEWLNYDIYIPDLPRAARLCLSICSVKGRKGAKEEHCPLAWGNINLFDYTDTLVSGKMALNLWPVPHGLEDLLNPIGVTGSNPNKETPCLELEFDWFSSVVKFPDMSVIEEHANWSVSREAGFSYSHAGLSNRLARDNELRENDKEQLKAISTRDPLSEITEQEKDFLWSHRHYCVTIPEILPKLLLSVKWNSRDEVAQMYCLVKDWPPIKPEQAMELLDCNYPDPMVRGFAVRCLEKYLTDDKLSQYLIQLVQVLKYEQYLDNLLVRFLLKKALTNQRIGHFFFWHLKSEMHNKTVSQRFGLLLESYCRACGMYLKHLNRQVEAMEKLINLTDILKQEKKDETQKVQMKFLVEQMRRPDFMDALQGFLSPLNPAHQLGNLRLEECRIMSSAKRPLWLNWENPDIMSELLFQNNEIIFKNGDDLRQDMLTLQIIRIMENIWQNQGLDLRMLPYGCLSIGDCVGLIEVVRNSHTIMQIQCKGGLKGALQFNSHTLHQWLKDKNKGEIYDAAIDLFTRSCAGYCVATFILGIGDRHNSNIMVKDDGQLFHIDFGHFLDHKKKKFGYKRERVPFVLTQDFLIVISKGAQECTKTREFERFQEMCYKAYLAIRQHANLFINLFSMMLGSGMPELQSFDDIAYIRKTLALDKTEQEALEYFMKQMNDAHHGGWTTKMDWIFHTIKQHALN
SMILES,IC50 (PI3K alpha),IC50 (PI3K beta),IC50 (mTOR)
"CCN(CC)c1cncc(-c2ccc3ncc4c(c3c2)n(-c2cn(C)nc2C)c(=O)n4C)c1 [Example 95, 8-(5-Diethylamino-pyridin-3-yl)-1-(1,3-dimethyl-1H-pyrazol-4-yl)-3-methyl-1,3-dihydro-imidazo[4,5-c]quinolin-2-one]",36 nM,41 nM,20 nM
"CNc1ncc(-c2ccc3ncc4c(c3c2)n(-c2cn(C)nc2Cl)c(=O)n4C)cc1C [Example 119, 1-(3-Chloro-1-methyl-1H-pyrazol-4-yl)-3-methyl-8-(5-methyl-6-methylamino-pyridin-3-yl)-1,3-dihydro-imidazo[4,5-c]quinolin-2-one]",16 nM,20 nM,< 3 nM
"Cc1nn(C)cc1-n1c(=S)n(C)c2cnc3ccc(-c4cccnc4)cc3c21 [Example 128.1, 1-(1,3-Dimethyl-1H-pyrazol-4-yl)-3-methyl-8-pyridin-3-yl-1,3-dihydro-imidazo[4,5-c]quinoline-2-thione]",11 nM,35 nM,69 nM
"COc1ccc(-c2ccc3ncc4c(c3c2)n(-c2cn(C)nc2C)c(=S)n4C)cc1OC [Example 128.2, 8-(3,4-Dimethoxy-phenyl)-1-(1,3-dimethyl-1H-pyrazol-4-yl)-3-methyl-1,3-dihydro-imidazo[4,5-c]quinoline-2-thione]",11 nM,17 nM,12 nM
"CNc1ncc(-c2ccc3ncc4c(c3c2)n(-c2cn(C(C)C)nc2C)c(=O)n4C)cc1C(F)(F)F [Example 144.2, 1-(1-Isopropyl-3-methyl-1H-pyrazol-4-yl)-3-methyl-8-(6-methylamino-5-trifluoromethyl-pyridin-3-yl)-1,3-dihydro-imidazo[4,5-c]quinolin-2-one]",8 nM,40 nM,< 3 nM
"CCNc1ncc(-c2ccc3ncc4c(c3c2)n(-c2cn(C)nc2C)c(=O)n4C)cc1C(F)(F)F [Example 145.2, 1-(1,3-Dimethyl-1H-pyrazol-4-yl)-8-(6-ethylamino-5-trifluoromethyl-pyridin-3-yl)-3-methyl-1,3-dihydro-imidazo[4,5-c]quinolin-2-one]",27 nM,50 nM,16 nM
"CCn1cc(-n2c(=O)n(C)c3cnc4ccc(-c5cnc(N)c(Cl)c5)cc4c32)c(C)n1 [Example 148.3, 8-(6-Amino-5-chloro-pyridin-3-yl)-1-(1-ethyl-3-methyl-1H-pyrazol-4-yl)-3-methyl-1,3-dihydro-imidazo[4,5-c]quinolin-2-one]",7 nM,3 nM,12 nM
"Cc1cc(-n2c(=O)n(C)c3cnc4ccc(-c5cnc(F)c(N)c5)cc4c32)n(C)n1 [Example 149.3, 8-(5-Amino-6-fluoro-pyridin-3-yl)-1-(2,5-dimethyl-2H-pyrazol-3-yl)-3-methyl-1,3-dihydro-imidazo[4,5-c]quinolin-2-one]",63 nM,202 nM,210 nM
"Cc1nn(C(C)C)cc1-n1c(=O)n(C)c2cnc3ccc(-c4cnc(Cl)c(N)c4)cc3c21 [Example 152.1, 8-(5-Amino-6-chloro-pyridin-3-yl)-1-(1-isopropyl-3-methyl-1H-pyrazol-4-yl)-3-methyl-1,3-dihydro-imidazo[4,5-c]quinolin-2-one]",27 nM,79 nM,13 nM

# The remaining lines, values ahead:
IC50 (PI3K alpha),IC50 (PI3K beta),IC50 (mTOR),SMILES
44 nM,79 nM,189 nM,"Cc1nn(C)c(C)c1-n1c(=O)n(C)c2cnc3ccc(-c4cnc(Cl)c(N)c4)cc3c21 [Example 152.3, 8-(5-Amino-6-chloro-pyridin-3-yl)-3-methyl-1-(1,3,5-trimethyl-1H-pyrazol-4-yl)-1,3-dihydro-imidazo[4,5-c]quinolin-2-one]"
10 nM,81 nM,55 nM,"CCOCc1cc(-c2ccc3ncc4c(c3c2)n(-c2cn(C(C)C)nc2C)c(=O)n4C)cnc1N [Example 166.3, 8-(6-Amino-5-ethoxymethyl-pyridin-3-yl)-1-(1-isopropyl-3-methyl-1H-pyrazol-4-yl)-3-methyl-1,3-dihydro-imidazo[4,5-c]quinolin-2-one]"
9 nM,10 nM,16 nM,"CCOCc1cc(-c2ccc3ncc4c(c3c2)n(-c2cn(C)nc2Cl)c(=O)n4C)cnc1N [Example 166.4, 8-(6-Amino-5-ethoxymethyl-pyridin-3-yl)-1-(3-chloro-1-methyl-1H-pyrazol-4-yl)-3-methyl-1,3-dihydro-imidazo[4,5-c]quinolin-2-one]"
55 nM,395 nM,1820 nM,"Cc1nn(C(C)C)cc1-n1c(=O)n(C)c2cnc3ccc(-c4cnc5c(c4)COC(=O)N5C)cc3c21 [Example 170, 1-(1-Isopropyl-3-methyl-1H-pyrazol-4-yl)-3-methyl-8-(1-methyl-2-oxo-1,4-dihydro-2H-pyrido[2,3-d][1,3]oxazin-6-yl)-1,3-dihydro-imidazo[4,5-c]quinolin-2-one]"
17 nM,36 nM,7 nM,"Cc1nn(C)cc1-n1c(=O)n(C)c2cnc3ccc(-c4cncc(N(C)C5CCC5)c4)cc3c21 [Example 174, 8-[5-(Cyclobutyl-methyl-amino)-pyridin-3-yl]-1-(1,3-dimethyl-1H-pyrazol-4-yl)-3-methyl-1,3-dihydro-imidazo[4,5-c]quinolin-2-one]"
11 nM,56 nM,19 nM,"Cc1cc(-n2c(=O)n(C)c3cnc4ccc(-c5cnc(C)c(O)c5)cc4c32)n(C)n1 [Example 185.2, 1-(2,5-Dimethyl-2H-pyrazol-3-yl)-8-(5-hydroxy-6-methyl-pyridin-3-yl)-3-methyl-1,3-dihydro-imidazo[4,5-c]quinolin-2-one]"
17 nM,32 nM,73 nM,"[2H]C([2H])([2H])OCc1ncc(-c2ccc3ncc4c(c3c2)n(-c2cn(C)nc2C)c(=O)n4C)cc1OCC [Example 198, 1-(1,3-Dimethyl-1H-pyrazol-4-yl)-8-(5-ethoxy-6-trideuteromethoxymethyl-pyridin-3-yl)-3-methyl-1,3-dihydro-imidazo[4,5-c]quinolin-2-one]"
10 nM,41 nM,32 nM,"CCn1cc(-n2c(=O)n(C)c3cnc4ccc(-c5cncc(C(C)(C)C#N)c5)cc4c32)c(C)n1 [Example 220.2, 2-{5-[1-(1-Ethyl-3-methyl-1H-pyrazol-4-yl)-3-methyl-2-oxo-2,3-dihydro-1H-imidazo[4,5-c]quinolin-8-yl]-pyridin-3-yl}-2-methyl-propionitrile]"
71 nM,287 nM,161 nM,"CCNC(=O)c1cc(-c2ccc3ncc4c(c3c2)n(-c2cn(C(C)C)nc2C)c(=O)n4C)cnc1N [Example 227, 2-Amino-N-ethyl-5-[1-(1-isopropyl-3-methyl-1H-pyrazol-4-yl)-3-methyl-2-oxo-2,3-dihydro-1H-imidazo[4,5-c]quinolin-8-yl]-nicotinamide]"
64 nM,359 nM,187 nM,"COc1ncc(-c2ccc3ncc4c(c3c2)n(-c2cc(C)nn2C)c(=O)n4C)c(OC)n1 [Example 234.4, 8-(2,4-Dimethoxy-pyrimidin-5-yl)-1-(2,5-dimethyl-2H-pyrazol-3-yl)-3-methyl-1,3-dihydro-imidazo[4,5-c]quinolin-2-one]"
18 nM,184 nM,79 nM,"CNc1ccc(-c2ccc3ncc4c(c3c2)n(-c2cn(C(C)C)nc2C)c(=S)n4C)cn1 [Example 241, 1-(1-isopropyl-3-methyl-1H-pyrazol-4-yl)-3-methyl-8-(6-(methylamino)pyridin-3-yl)-1H-imidazo[4,5-c]quinoline-2(3H)-thione]"
11 nM,62 nM,65 nM,"CCn1cc(-n2c(=O)n(C)c3cnc4ccc(-c5ccc(OC)c(OC)c5)nc4c32)c(C)n1 [Example 254, 8-(3,4-Dimethoxy-phenyl)-1-(1-ethyl-3-methyl-1H-pyrazol-4-yl)-3-methyl-1,3-dihydro-1,3,5,9-tetraaza-cyclopenta[a]naphthalen-2-one]"
